Measurements: US11293024B2, “Antisense antibacterial compounds and methods” (priority 2014, dated 2022)

System: P. aeruginosa PAO1 biofilm
Assay: Biofilm prevention in MBEC plate (crystal violet)
Assay type: cell-based, Pseudomonas aeruginosa
Settings: 5 μM PPMO, 2 μg/mL PMBN, MHII, 20 hours; one-way ANOVA p<0.0001
Procedure: P. aeruginosa PAO1 (5×10^5 cfu/mL) was grown in MHII media in an MBEC plate for 20 hours either alone or in the presence of 5 μM of the indicated PPMOs, PMBN alone, (RXR)4, or a scrambled PPMO. All conditions contained 2 μg/mL of PMBN unless indicated otherwise. Pegs were processed for crystal violet or visualized by microscopy at 20 hours. […] FIGS. 6B-6D: Spinning Disk confocal microscopy images of 20 hour biofilm treated with (FIG. 6B) No PPMO, (FIG. 6C) 5 μM Scr PPMO #41, (FIG. 6D) 5 μM RpsJ PPMO #14. PAO1 GFP is shown in green and biofilm is shown in red. The biofilm is stained with 200 μg/mL of Concanavalin A, Alexafluor 647 conjugate.
Pseudomonas aeruginosa Biofilm Prevention in MBEC Plate Protocol
• 1. 10 mL of MH is inoculated with a single colony and incubated at 37° C. and ˜250 rpm for about 5 hours. • 2. The sample is centrifuged for 10 minutes at ˜4000 rpm at 4° C., the supernatant is decanted and the pellet resuspended in 10 mL of 150 mM NaCl or PBS. This step is repeated to wash the pellet 3 times. • 3. The sample is resuspended in 10 mL 150 mM NaCl or PBS. • 4. The OD600 of the sample is taken and cfu/mL is calculated. (OD600 usually between 0.65-0.80). • 5. A Bacterial Working Solution (BWS) is made by inoculating 10 mL of MH to 5×10^5 cfu/mL final concentration. • 6. 2 μL/mL of 1 mg/mL stock PMBN is added to the BWS and vortexed 3 times. • 7. 1 mL of BWS is pipetted into each separate Eppendorf tube for each condition that is tested. • 8. An appropriate amount of PPMO is added to each Eppendorf tube and vortexed 3 times. • 9. Outside wells are filled with fresh MH, NaCl, or PBS to keep the outer pegs from drying out. • 10. One column of the MBEC plate is filled with 150 μL per well from each Eppendorf tube (one condition per column). • 11. Pegs are placed into the MBEC plate and the edges covered with a breathable membrane. • 12. The MBEC plate is incubated for 18-20 hours at 37° C. and 110 rpm. Day 2:
1. […] The final OD570 of the 10× dilution of solution should be approximately 0.500 absorbance. […]
2. OD reading: The OD570 for the 96-well plate from step 1e is determined. […]

Substance: PPMO #14: RpsJ PMO GCATTTGACCT, 5′ TEG, 3′ (RXR)4XB CPP
- prevention of biofilm (crystal violet): statistically significant prevention of biofilm
